Measurements taken from patent publication US11214594B2, “Antimicrobial peptide having synergistic antibacterial effect with antibiotics on multidrug resistant bacteria, and use thereof” (priority 2016, dated 2022).
Where two headings read alike, the source gives them in different places. Where a SMILES comes first, the peptide text is derived from it.

Experiments:
MDRPA 2003 = assay type: cell-based, Pseudomonas aeruginosa
Method in brief: (§1)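 Broth microdilution in MH medium: strains diluted to 2×10^6 CFU were mixed with equal volumes of twofold serial peptide dilutions in MH medium. MIC was taken as the lowest peptide concentration preventing bacterial growth.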

MDRPA 2002 = assay type: cell-based, Pseudomonas aeruginosa
Method in brief: as §1

MDRAB 12036 = assay type: cell-based, Acinetobacter baumannii
Method in brief: as §1

P. aeruginosa = test: microbe, parasite or virus in culture; assay type: cell-based, Pseudomonas aeruginosa
Method in brief: as §1

A. baumannii [1] = test: microbe, parasite or virus in culture; assay type: cell-based, Acinetobacter baumannii
Method in brief: as §1

MDRAB 12035 [2] = test: microbe, parasite or virus in culture; assay type: cell-based, Acinetobacter baumannii
Method in brief: as §1

MRSA 3114 = assay type: cell-based, Staphylococcus aureus; settings: 3114
Method in brief: as §1

MRSA 3126 = assay type: cell-based, Staphylococcus aureus; settings: 3126
Method in brief: as §1

S. aureus = test: microbe, parasite or virus in culture; assay type: cell-based, Staphylococcus aureus
Method in brief: as §1

S. epidermidis = test: microbe, parasite or virus in culture; assay type: cell-based, Staphylococcus epidermidis
Method in brief: as §1

MDREC 1229 [3] = test: MIC of antibiotic during combined treatment with antimicrobial peptide; assay type: cell-based, Escherichia coli
Method in brief: (§2)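 Strains in MH medium at 2×10^6 CFU/ml were mixed with peptide diluted stepwise (2:1) from its MIC, then antibiotic dilutions in MH medium were added to give the antibiotic MIC. The reversed set-up, peptide titrated against fixed antibiotic, gave the peptide MIC.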

S. typhimurium = test: microbe, parasite or virus in culture; assay type: cell-based, Salmonella typhimurium
Method in brief: as §1

MDREC 1238 = assay type: cell-based, Escherichia coli
Method in brief: as §1

E. coli = assay type: cell-based, Escherichia coli; settings: E. coli
Method in brief: as §2

MDREC 1229 [4] = assay type: cell-based, Escherichia coli
Method in brief: as §2

MDRAB 12035 [5] = test: MIC of antibiotic during combined treatment with antimicrobial peptide; assay type: cell-based, Acinetobacter baumannii
Method in brief: as §2

MDRST 8007 = test: Minimal inhibitory concentration (MIC), single agent; assay type: cell-based, Salmonella typhimurium; settings: agent alone
Method in brief: as §1

B. subtilis = test: microbe, parasite or virus in culture; assay type: cell-based, Bacillus subtilis
Method in brief: as §1

A. baumannii [6] = test: MIC of antimicrobial peptide during combined treatment with antibiotic; assay type: cell-based, Acinetobacter baumannii
Method in brief: as §2

MDRAB 12035 [7] = test: as above; assay type: cell-based, Acinetobacter baumannii
Method in brief: as §2

[8] = peptide treatment concentration 1 μg/ml
[9] = peptide treatment concentration 2 μg/ml
[10] = peptide treatment concentration 4 μg/ml
[11] = peptide treatment concentration 6 μg/ml
[12] = peptide treatment concentration 8 μg/ml
[13] = peptide treatment concentration 16 μg/ml
[14] = peptide treatment concentration 32 μg/ml
[15] = peptide treatment concentration 64 μg/ml
[16] = with Erythromycin […] (Conc./MIC 1)
[17] = erythromycin 4 μg/ml (Conc./MIC 1/8)
[18] = erythromycin 8 μg/ml (Conc./MIC 1/4)
[19] = erythromycin 16 μg/ml (Conc./MIC 1/2)
[20] = erythromycin 32 μg/ml (Conc./MIC 1)
[21] = vancomycin 512 μg/ml (Conc./MIC 1/2)
[22] = vancomycin 1024 μg/ml (Conc./MIC 1)

CC[C@H](C)[C@H](NC(=O)[C@H](CCCCN)NC(=O)[C@H](Cc1c[nH]c2ccccc12)NC(=O)[C@@H](N)CCCNC(=N)N)C(=O)N[C@@H](Cc1ccccc1)C(=O)N[C@@H](CCCCN)C(=O)N[C@@H](CCCCN)C(=O)N[C@H](C(=O)N1CCC[C@H]1C(=O)N[C@@H](CCCCN)C(=O)N[C@@H](Cc1ccccc1)C(=O)N[C@@H](CC(C)C)C(=O)N[C@@H](Cc1c[nH]cn1)C(=O)N[C@@H](CO)C(=O)N[C@@H](CC(C)C)C(=O)N[C@@H](CCCCN)C(=O)N[C@@H](CCCCN)C(=O)N[C@@H](Cc1ccccc1)C(N)=O)[C@@H](C)CC [PapMA-6, RWK IFK KIP KFL HSL KKF-NH2] (H-RWKIFKKIPKFLHSLKKF-NH2; N-terminus assumed)
16 µg/mL: Minimal inhibitory concentration MIC (P. aeruginosa) | Antibiotic MIC, Vancomycin (MDREC 1229 [3]; [12]) | Minimal inhibitory concentration MIC (S. typhimurium) | Erythromycin MIC during combined treatment with peptide (MDRAB 12035 [5]; [8]) | Linezolid MIC during combined treatment with peptide (MDRAB 12035 [5]; [10])
1 µg/mL: Antibiotic MIC, Erythromycin (MDREC 1229 [3]; [12]) | Antibiotic MIC, Linezolid (MDREC 1229 [3]; [14]) | Linezolid MIC during combined treatment with peptide (MDRAB 12035 [5]; [14]) | Peptide MIC during treatment with antibiotic (A. baumannii [6]; [19]) | Peptide MIC during treatment with antibiotic (A. baumannii [6]; linezolid […] (Conc./MIC 1/2)) | Peptide MIC during treatment with erythromycin (MDRAB 12035 [7]; [19]) | Peptide MIC during treatment with linezolid (MDRAB 12035 [7]; linezolid […] (Conc./MIC 1/2)) | Peptide MIC during treatment with linezolid (MDRAB 12035 [7]; linezolid […] (Conc./MIC 1/4)) | Peptide MIC during treatment with vancomycin (MDRAB 12035 [7]; [21])
32 µg/mL: Minimal inhibitory concentration MIC (MDRPA 2003) | Minimal inhibitory concentration MIC (MDRPA 2002) | Minimal inhibitory concentration MIC (A. baumannii [1]) | Peptide MIC, peptide alone (A. baumannii [1]) | Antibiotic MIC, Erythromycin (MDREC 1229 [3]; [9]) | Antibiotic MIC, Linezolid (MDREC 1229 [3]; [10]) | Linezolid MIC during combined treatment with peptide (MDRAB 12035 [5]; [9]) | Minimal inhibitory concentration MIC (MDRST 8007)
0.5 µg/mL: Erythromycin MIC during combined treatment with peptide (MDRAB 12035 [5]; [11]) | Peptide MIC during treatment with antibiotic (A. baumannii [6]; vancomycin […] (Conc./MIC 1/4))
significantly increased: Antibacterial activity (in words) (P. aeruginosa; P. aeruginosa and S. typhimurium)
4 µg/mL: Antibiotic MIC, Linezolid (MDREC 1229 [3]; [13]) | Antibiotic MIC, Vancomycin (MDREC 1229 [3]; [13]) | Erythromycin MIC during combined treatment with peptide (MDRAB 12035 [5]; [10]) | Linezolid MIC during combined treatment with peptide (MDRAB 12035 [5]; [12]) | Vancomycin MIC during combined treatment with peptide (MDRAB 12035 [5]; [13]) | Peptide MIC during treatment with antibiotic (A. baumannii [6]; [17]) | Peptide MIC during treatment with antibiotic (A. baumannii [6]; linezolid 32 μg/ml (Conc./MIC 1/8)) | Peptide MIC during treatment with erythromycin (MDRAB 12035 [7]; [17])
0 µg/mL: Antibiotic MIC, Erythromycin (MDREC 1229 [3]; [15]) | Antibiotic MIC, Linezolid (MDREC 1229 [3]; [15]) | Antibiotic MIC, Vancomycin (MDREC 1229 [3]; [15]) | Peptide MIC (E. coli; [16]) | Peptide MIC (E. coli; with Linezolid […] (Conc./MIC 1)) | Peptide MIC (E. coli; with Vancomycin 1024 μg/ml (Conc./MIC 1)) | Peptide MIC (MDREC 1229 [4]; [16]) | Peptide MIC (MDREC 1229 [4]; with Linezolid 512 μg/ml (Conc./MIC 1)) | Erythromycin MIC during combined treatment with peptide (MDRAB 12035 [5]; [15]) | Linezolid MIC during combined treatment with peptide (MDRAB 12035 [5]; [15]) | Vancomycin MIC during combined treatment with peptide (MDRAB 12035 [5]; [15]) | Peptide MIC during treatment with antibiotic (A. baumannii [6]; [20]) | Peptide MIC during treatment with antibiotic (A. baumannii [6]; linezolid […] (Conc./MIC 1)) | Peptide MIC during treatment with antibiotic (A. baumannii [6]; [22]) | Peptide MIC during treatment with erythromycin (MDRAB 12035 [7]; [20]) | Peptide MIC during treatment with linezolid (MDRAB 12035 [7]; linezolid 512 μg/ml (Conc./MIC 1))
0.25 µg/mL: Antibiotic MIC, Erythromycin (MDREC 1229 [3]; [13]) | Erythromycin MIC during combined treatment with peptide (MDRAB 12035 [5]; [12]) | Peptide MIC during treatment with antibiotic (A. baumannii [6]; [21]) | Peptide MIC during treatment with vancomycin (MDRAB 12035 [7]; [22])
0.0625 µg/mL: Erythromycin MIC during combined treatment with peptide (MDRAB 12035 [5]; [14])
128 µg/mL: Antibiotic MIC, Linezolid (MDREC 1229 [3]; [8]) | Linezolid MIC during combined treatment with peptide (MDRAB 12035 [5]; [8]) | Vancomycin MIC during combined treatment with peptide (MDRAB 12035 [5]; [9])
64 µg/mL: Minimal inhibitory concentration MIC (MDRAB 12036) | Minimal inhibitory concentration MIC (MDRAB 12035 [2]) | Peptide MIC, peptide alone (MDRAB 12035 [2]) | Antibiotic MIC, Erythromycin (MDREC 1229 [3]; [8]) | Antibiotic MIC, Linezolid (MDREC 1229 [3]; [9]) | Antibiotic MIC, Vancomycin (MDREC 1229 [3]; [11]) | Minimal inhibitory concentration MIC (MDREC 1238) | Vancomycin MIC during combined treatment with peptide (MDRAB 12035 [5]; [10])
0.125 µg/mL: Antibiotic MIC, Erythromycin (MDREC 1229 [3]; [14]) | Erythromycin MIC during combined treatment with peptide (MDRAB 12035 [5]; [13])
2 µg/mL: Antibiotic MIC, Erythromycin (MDREC 1229 [3]; [11]) | Antibiotic MIC, Vancomycin (MDREC 1229 [3]; [14]) | Linezolid MIC during combined treatment with peptide (MDRAB 12035 [5]; [13]) | Vancomycin MIC during combined treatment with peptide (MDRAB 12035 [5]; [14]) | Peptide MIC during treatment with antibiotic (A. baumannii [6]; [18]) | Peptide MIC during treatment with antibiotic (A. baumannii [6]; linezolid 64 μg/ml (Conc./MIC 1/4)) | Peptide MIC during treatment with antibiotic (A. baumannii [6]; vancomycin […] (Conc./MIC 1/8)) | Peptide MIC during treatment with erythromycin (MDRAB 12035 [7]; [18]) | Peptide MIC during treatment with linezolid (MDRAB 12035 [7]; linezolid 64 μg/ml (Conc./MIC 1/8)) | Peptide MIC during treatment with vancomycin (MDRAB 12035 [7]; vancomycin […] (Conc./MIC 1/4)) | Peptide MIC during treatment with vancomycin (MDRAB 12035 [7]; vancomycin […] (Conc./MIC 1/8))
8 µg/mL: Antibiotic MIC, Erythromycin (MDREC 1229 [3]; [10]) | Antibiotic MIC, Linezolid (MDREC 1229 [3]; [11]) | Antibiotic MIC, Linezolid (MDREC 1229 [3]; [12]) | Erythromycin MIC during combined treatment with peptide (MDRAB 12035 [5]; [9]) | Linezolid MIC during combined treatment with peptide (MDRAB 12035 [5]; [11]) | Vancomycin MIC during combined treatment with peptide (MDRAB 12035 [5]; [11]) | Vancomycin MIC during combined treatment with peptide (MDRAB 12035 [5]; [12])
>128 µg/mL: Minimal inhibitory concentration MIC (MRSA 3114) | Minimal inhibitory concentration MIC (MRSA 3126) | Minimal inhibitory concentration MIC (S. aureus) | Minimal inhibitory concentration MIC (S. epidermidis) | Antibiotic MIC, Vancomycin (MDREC 1229 [3]; [8]) | Antibiotic MIC, Vancomycin (MDREC 1229 [3]; [9]) | Antibiotic MIC, Vancomycin (MDREC 1229 [3]; [10]) | Vancomycin MIC during combined treatment with peptide (MDRAB 12035 [5]; [8]) | Minimal inhibitory concentration MIC (B. subtilis)
